Laboratory results: patent publication US7655665B2, “Nitromethylene derivatives and their use” (East China University of Science and Technology, priority 2004, dated 2010)

Assays:
[1] = system: Aphis craccivoral; experiment: Insecticidal activity against Aphis craccivoral by immersing (dipping aphids on bean sprout); format: in vivo; conditions: 500 ppm (500 ug/mL dilution), dipped 5 seconds, killed aphis counted after 24 hours, 23° C.
Outline: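 Wingless adult A. craccivora feeding on bean sprouts dipped 5 seconds in compound at 500 ug/mL (0.2 mL/L Triton X-100 aqueous), then held at 23 °C. Mortality counted after 24 hours, three replicates, vehicle-only control.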

[2] = system: Nilaparvata lugens; experiment: Insecticidal activity against Nilaparvata lugens (planthopper) by spraying; format: in vivo; conditions: 500 ppm, spraying 2 ml per tumbler, killed counted after 24 hours
Outline: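 Ten planthoppers per tumbler were introduced 6 hours before spraying with 2 ml of test solution, with clean water as blank control. Each treatment had 3 replicates, and three series were run. Mortality was counted after 24 hours.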

SMILES | mortality (%) (500 ppm) Aphis [1] | mortality (%) (500 ppm) Nilaparvata-lugens [2]
CCCC(C)SC1CCC([N+](=O)[O-])=C2N(Cc3cnc(Cl)s3)CCN21 (centres unmarked) [Compound 184] | 12 | 35
CC(C)(C)CSC1CCC([N+](=O)[O-])=C2N(Cc3cnc(Cl)s3)CCN21 (centres unmarked) [Compound 185] | 36 | 86
COCCSC1CCC([N+](=O)[O-])=C2N(Cc3cnc(Cl)s3)CCN21 (centres unmarked) [Compound 186] | 97 | 100
N=C1CCC([N+](=O)[O-])=C2N(Cc3ccc(Cl)nc3)CCN12 [Compound 188] | 55 | 67
CN=C1CCC([N+](=O)[O-])=C2N(Cc3ccc(Cl)nc3)CCN12 [Compound 189] | 100 | 100
CCN=C1CCC([N+](=O)[O-])=C2N(Cc3ccc(Cl)nc3)CCN12 [Compound 190] | 89 | 100
O=[N+]([O-])C1=C2N(Cc3ccc(Cl)nc3)CCN2C(=NCCCl)CC1 [Compound 191] | 53 | 78
CCCN=C1CCC([N+](=O)[O-])=C2N(Cc3ccc(Cl)nc3)CCN12 [Compound 192] | 86 | 100
CC(C)N=C1CCC([N+](=O)[O-])=C2N(Cc3ccc(Cl)nc3)CCN12 [Compound 193] | 93 | 98
CCCCN=C1CCC([N+](=O)[O-])=C2N(Cc3ccc(Cl)nc3)CCN12 [Compound 194] | 34 | 45
CCCCCN=C1CCC([N+](=O)[O-])=C2N(Cc3ccc(Cl)nc3)CCN12 [Compound 195] | 46 | 78
CC(C)CCN=C1CCC([N+](=O)[O-])=C2N(Cc3ccc(Cl)nc3)CCN12 [Compound 196] | 12 | 25
CCCC(C)N=C1CCC([N+](=O)[O-])=C2N(Cc3ccc(Cl)nc3)CCN12 (centres unmarked) [Compound 197] | 8 | 56
CC(C)(C)CN=C1CCC([N+](=O)[O-])=C2N(Cc3ccc(Cl)nc3)CCN12 [Compound 198] | 39 | 89
COCCN=C1CCC([N+](=O)[O-])=C2N(Cc3ccc(Cl)nc3)CCN12 [Compound 199] | 16 | 36
CCOCCN=C1CCC([N+](=O)[O-])=C2N(Cc3ccc(Cl)nc3)CCN12 [Compound 200] | 45 | 78
N=C1CCC([N+](=O)[O-])=C2N(Cc3ccc(Cl)nc3)CCCN12 [Compound 201] | 54 | 55
CN=C1CCC([N+](=O)[O-])=C2N(Cc3ccc(Cl)nc3)CCCN12 [Compound 202] | 89 | 98
CCN=C1CCC([N+](=O)[O-])=C2N(Cc3ccc(Cl)nc3)CCCN12 [Compound 203] | 92 | 100
O=[N+]([O-])C1=C2N(Cc3ccc(Cl)nc3)CCCN2C(=NCCCl)CC1 [Compound 204] | 46 | 78
CCCN=C1CCC([N+](=O)[O-])=C2N(Cc3ccc(Cl)nc3)CCCN12 [Compound 205] | 35 | 100
CC(C)N=C1CCC([N+](=O)[O-])=C2N(Cc3ccc(Cl)nc3)CCCN12 [Compound 206] | 56 | 98

SMILES | mortality (%) (500 ppm) Aphis [1] | mortality (%) (500 ppm) Nilaparvata-lugens [2]
CCCCN=C1CCC([N+](=O)[O-])=C2N(Cc3ccc(Cl)nc3)CCCN12 [Compound 207] | 14 | 45
CCCCCN=C1CCC([N+](=O)[O-])=C2N(Cc3ccc(Cl)nc3)CCCN12 [Compound 208] | 35 | 67
CC(C)CCN=C1CCC([N+](=O)[O-])=C2N(Cc3ccc(Cl)nc3)CCCN12 [Compound 209] | 23 | 26
CCCC(C)N=C1CCC([N+](=O)[O-])=C2N(Cc3ccc(Cl)nc3)CCCN12 (centres unmarked) [Compound 210] | 7 | 77
CC(C)(C)CN=C1CCC([N+](=O)[O-])=C2N(Cc3ccc(Cl)nc3)CCCN12 [Compound 211] | 34 | 56
N=C1CCC([N+](=O)[O-])=C2N(Cc3cnc(Cl)s3)CCN12 [Compound 212] | 34 | 23
CN=C1CCC([N+](=O)[O-])=C2N(Cc3cnc(Cl)s3)CCN12 [Compound 213] | 32 | 78
CCN=C1CCC([N+](=O)[O-])=C2N(Cc3cnc(Cl)s3)CCN12 [Compound 214] | 55 | 90
O=[N+]([O-])C1=C2N(Cc3cnc(Cl)s3)CCN2C(=NCCCl)CC1 [Compound 215] | 9 | 97
CCCCN=C1CCC([N+](=O)[O-])=C2N(Cc3cnc(Cl)s3)CCN12 [Compound 216] | 66 | 98
CCCN=C1CCC([N+](=O)[O-])=C2N(Cc3cnc(Cl)s3)CCN12 [Compound 217] | 23 | 100
CCCCCN=C1CCC([N+](=O)[O-])=C2N(Cc3cnc(Cl)s3)CCN12 [Compound 218] | 45 | 67
CC(C)N=C1CCC([N+](=O)[O-])=C2N(Cc3cnc(Cl)s3)CCN12 [Compound 219] | 34 | 45
N=C1CCC([N+](=O)[O-])=C2N(Cc3cnc(Cl)s3)CCCN12 [Compound 220] | 16 | 56
CN=C1CCC([N+](=O)[O-])=C2N(Cc3cnc(Cl)s3)CCCN12 [Compound 221] | 4 | 67
CCN=C1CCC([N+](=O)[O-])=C2N(Cc3cnc(Cl)s3)CCCN12 [Compound 222] | 4 | 89
O=[N+]([O-])C1=C2N(Cc3cnc(Cl)s3)CCCN2C(=NCCCl)CC1 [Compound 223] | 5 | 76
CCCCN=C1CCC([N+](=O)[O-])=C2N(Cc3cnc(Cl)s3)CCCN12 [Compound 224] | 45 | 66
CCCN=C1CCC([N+](=O)[O-])=C2N(Cc3cnc(Cl)s3)CCCN12 [Compound 225] | 35 | 78
CCCCCN=C1CCC([N+](=O)[O-])=C2N(Cc3cnc(Cl)s3)CCCN12 [Compound 226] | 22 | 57
CC(C)N=C1CCC([N+](=O)[O-])=C2N(Cc3cnc(Cl)s3)CCCN12 [Compound 227] | 100 | 100
